{"source": "patent US20180371542A1", "about": "“OPIOID RECEPTOR BLOCKADE IN TREATING ALCOHOL USE DISORDERS” (MUSC Foundation for Research Development, priority 2017, published 2018)", "origin": "cited, not measured here", "tested_on": "DSM-IV alcohol dependent individuals", "conditions": "all subjects irrespective of genotype; initial report (Schacht et al., 2017)"}
{"compound": "O=C1CC[C@@]2(O)[C@H]3Cc4ccc(O)c5c4[C@@]2(CCN3CC2CC2)[C@H]1O5", "note": "[naltrexone]", "values": [{"measurement": "Main effect of naltrexone over placebo overall", "result": "significant main effect of naltrexone over placebo"}]}
